Each block holds one molecule with its values, some of them ahead of it.
Test: Tritosomal stability of p-nitrophenyl glycosides
Format: in vitro ADME, rat
Settings: for Readings from spectrometer, absorbance at 410 nm, Assay 1 / Readings from spectrometer, absorbance at 410 nm, Assay 2: rat, pH 5.5; for tritosomal cleavage (production of p-nitrophenol, absorbance at 410 nm): substrate 31.0 mg/ml in DMSO, 37° C., after 20 hours
Text: One essential facet of the LEAPT concept is that the rhamnoside-capped prodrugs will be cleaved only by the selectively delivered naringinase construct. To ensure that this is possible, a lysosomal tritosome preparation was used to assess the potential cleavage of α-L-rhamnopyranosides by enzymes in the hepatocytes. p-Nitrophenyl α-L-rhamnopyranoside was used as a chromogenic prodrug mimic. If there are enzymes present in the hepatocytes capable of cleaving α-L-rhamnopyranosidic linkages, this would be detected over an extended assay by the production of p-nitrophenol. Assay conditions based on those used in 2.2.4 were recreated with the used of pNP-α-L-Rha instead of the protease substrate. The mixture was incubated at 37° C. and the absorbance at 410 nm recorded every 5 minutes.
With the concentration of pNP-α-L-Rha increased ten-fold, the tritosomal stability of rhamnopyranosides was reassessed.
Further assessments of the glycosidic enzymes present in the tritosomal preparation were required to allow further design of prodrugs. An assay equivalent to 2.8.7 was used to assess β-D-galactopyranosidic activity.
Further assessments of the glycosidic enzymes present in the tritosomal preparation were required to allow further design of prodrugs. An assay equivalent to 2.3.7 was used to assess β-D-glucopyranosidic activity.
A stock solution of p-nitrophenyl α-L-rhamnopyranoside in DMSO (3.1 mg/ml, equivalent to BzPheValArgNap solution) was used in an assay equivalent to 2.8.4.
As no activity against α-L-rhamnopyranosides was detected in the previous assay, a higher concentration of pNPαL-Rha (31.0 mg/ml) in DMSO was used in an otherwise identical assay. In addition, the cuvette was incubated at 37° C. for 20 hours and the absorbance reading repeated.
A stock solution of p-nitrophenyl β-D-galactopyranoside in DMSO (31.0 mg/ml) was used in an assay equivalent to 2.8.7. In addition, the cuvette was incubated at 37° C. for 20 hours and the absorbance reading repeated.
A stock solution of p-nitrophenyl β-D-glucopyranoside in DMSO (31.0 mg/ml) was used in an assay equivalent to 2.8.7. In addition, the cuvette was incubated at 37° C. for 20 hours and the absorbance reading repeated.

Readings from spectrometer, absorbance at 410 nm, Assay 1 (0 min, 0.093 mg/ml): 0.158
Readings from spectrometer, absorbance at 410 nm, Assay 2 (0 min, 0.093 mg/ml): 0.160
Readings from spectrometer, absorbance at 410 nm, Assay 1 (0 min, 0.93 mg/ml): 0.173
Readings from spectrometer, absorbance at 410 nm, Assay 2 (0 min, 0.93 mg/ml): 0.172
Readings from spectrometer, absorbance at 410 nm, Assay 1 (5 min, 0.093 mg/ml): 0.155
Readings from spectrometer, absorbance at 410 nm, Assay 2 (5 min, 0.093 mg/ml): 0.159
Readings from spectrometer, absorbance at 410 nm, Assay 1 (5 min, 0.93 mg/ml): 0.169
Readings from spectrometer, absorbance at 410 nm, Assay 2 (5 min, 0.93 mg/ml): 0.170
Readings from spectrometer, absorbance at 410 nm, Assay 1 (10 min, 0.093 mg/ml): 0.153
Readings from spectrometer, absorbance at 410 nm, Assay 2 (10 min, 0.093 mg/ml): 0.159
Readings from spectrometer, absorbance at 410 nm, Assay 1 (10 min, 0.93 mg/ml): 0.166
Readings from spectrometer, absorbance at 410 nm, Assay 2 (10 min, 0.93 mg/ml): 0.167
Readings from spectrometer, absorbance at 410 nm, Assay 1 (15 min, 0.093 mg/ml): 0.151
Readings from spectrometer, absorbance at 410 nm, Assay 2 (15 min, 0.093 mg/ml): 0.158
Readings from spectrometer, absorbance at 410 nm, Assay 1 (15 min, 0.93 mg/ml): 0.165
Readings from spectrometer, absorbance at 410 nm, Assay 2 (15 min, 0.93 mg/ml): 0.166
Readings from spectrometer, absorbance at 410 nm, Assay 1 (20 min, 0.093 mg/ml): 0.150
Readings from spectrometer, absorbance at 410 nm, Assay 2 (20 min, 0.093 mg/ml): 0.159
Readings from spectrometer, absorbance at 410 nm, Assay 1 (20 min, 0.93 mg/ml): 0.162
Readings from spectrometer, absorbance at 410 nm, Assay 2 (20 min, 0.93 mg/ml): 0.164
Readings from spectrometer, absorbance at 410 nm, Assay 1 (25 min, 0.093 mg/ml): 0.150
Readings from spectrometer, absorbance at 410 nm, Assay 2 (25 min, 0.093 mg/ml): 0.157
Readings from spectrometer, absorbance at 410 nm, Assay 1 (25 min, 0.93 mg/ml): 0.161
Readings from spectrometer, absorbance at 410 nm, Assay 2 (25 min, 0.93 mg/ml): 0.165
Readings from spectrometer, absorbance at 410 nm, Assay 1 (30 min, 0.093 mg/ml): 0.149
Readings from spectrometer, absorbance at 410 nm, Assay 2 (30 min, 0.093 mg/ml): 0.157
Readings from spectrometer, absorbance at 410 nm, Assay 1 (30 min, 0.93 mg/ml): 0.158
Readings from spectrometer, absorbance at 410 nm, Assay 2 (30 min, 0.93 mg/ml): 0.163
Readings from spectrometer, absorbance at 410 nm, Assay 1 (20 h, 0.93 mg/ml): 0.138
Readings from spectrometer, absorbance at 410 nm, Assay 2 (20 h, 0.93 mg/ml): 0.131
SMILES: C[C@@H]1O[C@@H](Oc2ccc([N+](=O)[O-])cc2)[C@H](O)[C@H](O)[C@H]1O [pNP-α-L-Rha, p-Nitrophenyl α-L-rhamnopyranoside]

SMILES: O=[N+]([O-])c1ccc(O[C@@H]2O[C@H](CO)[C@H](O)[C@H](O)[C@H]2O)cc1 [pNP-β-D-Gal, p-nitrophenyl β-D-galactopyranoside]
tritosomal cleavage (production of p-nitrophenol, absorbance at 410 nm): significant amount of p-nitrophenol had been released

SMILES: O=[N+]([O-])c1ccc(O[C@@H]2O[C@H](CO)[C@@H](O)[C@H](O)[C@H]2O)cc1 [pNP-β-D-Glc, p-nitrophenyl β-D-glucopyranoside]
tritosomal cleavage (production of p-nitrophenol, absorbance at 410 nm): significant amount of p-nitrophenol had been released
